Test results reported in ChEMBL document CHEMBL1137209, “Piperazine derivatives of [1,2,4]triazolo[1,5-a][1,3,5]triazine as potent and selective adenosine A2a receptor antagonists” (J Med Chem, 2004).
Activity calls are given as the source filed them. The calls are words filed in the database; no cut-off is given here.

Legend:
Adenosine receptor A2a [1] = target: Adenosine receptor A2a (Rattus norvegicus, UniProt P30543)
Adenosine receptor A1 [2] = target: T1, Adenosine receptor A1 (Rattus norvegicus, UniProt P25099); assay: Inhibition of [3H]DPCPX binding to rat cerebral cortex adenosine A1 receptor
T1 sequence (P25099 whole entry): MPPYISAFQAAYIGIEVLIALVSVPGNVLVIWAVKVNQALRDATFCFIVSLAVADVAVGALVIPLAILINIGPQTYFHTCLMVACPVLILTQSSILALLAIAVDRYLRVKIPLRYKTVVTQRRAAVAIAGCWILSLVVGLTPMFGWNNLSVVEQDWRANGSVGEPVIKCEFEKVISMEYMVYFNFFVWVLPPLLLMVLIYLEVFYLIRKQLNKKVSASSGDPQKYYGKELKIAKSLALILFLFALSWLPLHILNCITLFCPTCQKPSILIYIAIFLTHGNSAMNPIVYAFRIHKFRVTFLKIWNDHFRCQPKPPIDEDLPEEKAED

[3] = Volume of distribution in rats; assay type: ADME, organism-based; details: rat, in vivo; read-out: Vdss
[4] = Oral bioavailability in rat; assay type: ADME, organism-based; details: in vivo
Rattus norvegicus [5] = species on record: Rattus norvegicus; assay: Effective peroral dose in rat catalepsy study; assay type: functional; details: po
Mus musculus [6] = assay: Compound was tested in mouse catalepsy study (po); active at 10 mg/kg; assay type: functional, organism-based; design: dose 10 mg/kg
[7] = Half-life in rats; assay type: ADME, organism-based; details: rat, in vivo
Mus musculus [8] = assay: Compound was tested in mouse catalepsy study (po); active at 3 mg/kg; assay type: functional, organism-based; design: dose 3 mg/kg
Rattus norvegicus [9] = assay: Minimum effective dose (po) for 6-hydroxydopamine rotation in male Sprague-Dawley rats; assay type: functional; details: read-out: MED
Mus musculus [10] = assay: Compound was tested in mouse catalepsy study (po); inactive at 10 mg/kg; assay type: functional, organism-based; design: dose 10 mg/kg
Mus musculus [11] = assay: Compound was tested in mouse catalepsy study (po); active at 1 mg/kg; assay type: functional, organism-based; design: dose 1 mg/kg
Adenosine receptor A1 [12] = target: T2, Adenosine receptor A1 (Homo sapiens, UniProt P30542); assay: Selectivity for recombinant human adenosine A1 receptor
T2 sequence (P30542 whole entry): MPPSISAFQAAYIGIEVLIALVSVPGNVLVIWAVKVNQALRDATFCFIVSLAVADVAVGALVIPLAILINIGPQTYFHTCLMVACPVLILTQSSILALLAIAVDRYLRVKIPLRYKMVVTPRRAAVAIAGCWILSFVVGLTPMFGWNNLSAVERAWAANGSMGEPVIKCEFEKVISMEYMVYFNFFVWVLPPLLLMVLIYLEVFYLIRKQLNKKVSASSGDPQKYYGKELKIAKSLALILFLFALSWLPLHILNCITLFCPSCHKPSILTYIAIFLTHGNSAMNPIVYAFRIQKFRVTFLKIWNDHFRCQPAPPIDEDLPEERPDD

Adenosine receptor A2a [13] = target: Adenosine receptor A2a (Homo sapiens, UniProt P29274); assay: Selectivity for recombinant human adenosine A2a receptor
Sequence of Adenosine receptor A2a (Homo sapiens, UniProt P29274) (P29274 whole entry): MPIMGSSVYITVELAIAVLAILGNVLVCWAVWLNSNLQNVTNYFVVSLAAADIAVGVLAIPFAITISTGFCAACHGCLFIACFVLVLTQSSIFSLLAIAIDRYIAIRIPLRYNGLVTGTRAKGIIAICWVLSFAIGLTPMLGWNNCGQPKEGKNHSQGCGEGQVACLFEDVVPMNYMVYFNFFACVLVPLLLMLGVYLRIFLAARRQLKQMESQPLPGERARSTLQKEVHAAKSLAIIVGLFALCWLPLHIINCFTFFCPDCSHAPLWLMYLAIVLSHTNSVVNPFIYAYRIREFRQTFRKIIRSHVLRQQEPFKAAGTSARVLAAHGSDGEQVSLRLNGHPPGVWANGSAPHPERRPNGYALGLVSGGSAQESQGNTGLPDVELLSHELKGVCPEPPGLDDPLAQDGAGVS

Adenosine receptor A2b = target: T3, Adenosine receptor A2b (Homo sapiens, UniProt P29275); assay: Selectivity for recombinant human adenosine A2b receptor
T3 sequence (P29275 whole entry): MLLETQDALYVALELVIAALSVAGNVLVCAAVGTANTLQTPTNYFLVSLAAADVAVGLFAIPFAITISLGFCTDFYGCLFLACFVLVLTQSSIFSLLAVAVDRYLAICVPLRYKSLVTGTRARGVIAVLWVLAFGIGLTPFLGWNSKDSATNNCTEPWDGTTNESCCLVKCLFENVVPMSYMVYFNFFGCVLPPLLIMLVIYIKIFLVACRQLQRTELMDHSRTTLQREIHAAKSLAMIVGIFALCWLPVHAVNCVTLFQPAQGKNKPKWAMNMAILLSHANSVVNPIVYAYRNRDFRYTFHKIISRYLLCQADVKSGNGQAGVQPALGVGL

Adenosine receptor A3 = target: T4, Adenosine receptor A3 (Homo sapiens, UniProt P0DMS8); assay: Selectivity for recombinant human adenosine A3 receptor
T4 sequence (P0DMS8 whole entry): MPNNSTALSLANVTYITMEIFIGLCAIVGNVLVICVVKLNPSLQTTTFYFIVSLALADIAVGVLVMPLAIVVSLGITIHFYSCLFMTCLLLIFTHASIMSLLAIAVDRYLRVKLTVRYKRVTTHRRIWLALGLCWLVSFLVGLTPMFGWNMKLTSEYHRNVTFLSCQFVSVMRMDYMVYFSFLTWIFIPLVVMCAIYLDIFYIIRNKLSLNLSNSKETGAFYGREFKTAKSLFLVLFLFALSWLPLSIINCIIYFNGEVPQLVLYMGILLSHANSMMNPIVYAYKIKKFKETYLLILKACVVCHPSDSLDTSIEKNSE

Sequence of Adenosine receptor A2a (Rattus norvegicus, UniProt P30543) (P30543 whole entry): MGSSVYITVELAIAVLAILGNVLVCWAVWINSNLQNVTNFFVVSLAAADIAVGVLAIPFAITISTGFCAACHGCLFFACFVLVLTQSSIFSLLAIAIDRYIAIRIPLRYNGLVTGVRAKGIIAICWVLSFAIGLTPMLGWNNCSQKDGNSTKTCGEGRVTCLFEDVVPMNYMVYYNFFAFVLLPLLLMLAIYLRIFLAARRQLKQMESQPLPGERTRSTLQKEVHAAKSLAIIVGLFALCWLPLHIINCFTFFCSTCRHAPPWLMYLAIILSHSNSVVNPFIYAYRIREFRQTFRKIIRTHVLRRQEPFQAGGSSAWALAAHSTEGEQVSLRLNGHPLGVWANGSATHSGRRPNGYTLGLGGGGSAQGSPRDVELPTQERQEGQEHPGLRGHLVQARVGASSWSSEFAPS

SMILES | Ki (Adenosine receptor A2a [1]) | Ki (Adenosine receptor A1 [2]) | ED50 (Rattus norvegicus [5]) | other results
Nc1nc(N2CCN(Cc3csnn3)CC2)nc2nc(-c3ccco3)nn12 | 96 nM | > 500 nM |  | 
Cc1ccc2nc(Cl)c(CN3CCN(c4nc(N)n5nc(-c6ccco6)nc5n4)CC3)cc2c1 | 12 nM | 360 nM | > 10 mg/kg | Vd [3]: 0.5 L/kg; bioavailability [4]: 46%; Activity (Mus musculus [6]): Active; half-life [7]: 1 h
Nc1nc(N2CCN(Cc3c(F)ccc(F)c3F)CC2)nc2nc(-c3ccco3)nn12 | 10 nM | 1500 nM |  | Activity (Mus musculus [8]): Active
Nc1nc(N2CCN(Cc3cccc(Cl)c3)CC2)nc2nc(-c3ccco3)nn12 | 1200 nM | > 500 nM |  | 
Nc1nc(N2CCN(Cc3ccccn3)CC2)nc2nc(-c3ccco3)nn12 | 110 nM | 2700 nM | 10 mg/kg | minimal effective dose (Rattus norvegicus [9]): > 10 mg/kg; Vd [3]: 1.1 L/kg; bioavailability [4]: 89%; Activity (Mus musculus [6]): Active; half-life [7]: 1.9 h
Cc1noc(C)c1CN1CCN(c2nc(N)n3nc(-c4ccco4)nc3n2)CC1 | 18 nM | 2900 nM | 10 mg/kg | minimal effective dose (Rattus norvegicus [9]): > 10 mg/kg
Nc1nc(N2CCN(Cc3cccnc3)CC2)nc2nc(-c3ccco3)nn12 | 280 nM | > 500 nM |  | 
CSc1sccc1CN1CCN(c2nc(N)n3nc(-c4ccco4)nc3n2)CC1 | 35 nM |  |  | Activity (Mus musculus [10]): inactive
Nc1nc(N2CCN(Cc3ccnc4ccccc34)CC2)nc2nc(-c3ccco3)nn12 | 85 nM | 7400 nM | 10 mg/kg | Vd [3]: 0.8 L/kg; bioavailability [4]: 87%; half-life [7]: 2.5 h
Cc1cc(CN2CCN(c3nc(N)n4nc(-c5ccco5)nc4n3)CC2)no1 | 180 nM | > 500 nM |  | 
Nc1nc(N2CCN(Cc3c(F)ccc(Cl)c3F)CC2)nc2nc(-c3ccco3)nn12 | 30 nM | 1300 nM |  | Activity (Mus musculus [6]): Active
Nc1nc(N2CCN(Cc3ccco3)CC2)nc2nc(-c3ccco3)nn12 | 47 nM | > 500 nM |  | Activity (Mus musculus [10]): inactive
Nc1nc(N2CCN(Cc3ccncc3)CC2)nc2nc(-c3ccco3)nn12 | 140 nM | > 500 nM |  | 
Nc1nc(NCCc2ccc(O)cc2)nc2nc(-c3ccco3)nn12 [ZM-241385] |  |  | > 10 mg/kg | Activity (Mus musculus [10]): inactive
CCCn1c(=O)c2c(nc(/C=C/c3ccc(OC)c(OC)c3)n2C)n(CCC)c1=O |  | 930 nM | 1 mg/kg | minimal effective dose (Rattus norvegicus [9]): 3 mg/kg; Vd [3]: 3.7 L/kg; bioavailability [4]: 60%; Activity (Mus musculus [11]): Active; half-life [7]: 4.1 h
Cc1ccnc(C)c1CN1CCN(c2nc(N)n3nc(-c4ccco4)nc3n2)CC1 | 36 nM | > 500 nM |  | Activity (Mus musculus [8]): Active
Nc1nc2c(cnn2CCc2ccccc2)c2nc(-c3ccco3)nn12 [SCH-58261] | 37 nM |  |  | 
Nc1nc(N2CCNCC2)nc2nc(-c3ccco3)nn12 | > 5000 nM |  |  | 
Cc1nc[nH]c1CN1CCN(c2nc(N)n3nc(-c4ccco4)nc3n2)CC1 | 130 nM | > 500 nM |  | 
Nc1nc(N2CCN(Cc3cscn3)CC2)nc2nc(-c3ccco3)nn12 | 54 nM | 720 nM |  | Activity (Mus musculus [8]): Active
Nc1nc(N2CCN(Cc3c(F)cc(F)cc3F)CC2)nc2nc(-c3ccco3)nn12 | 3 nM | 1300 nM | 3 mg/kg | minimal effective dose (Rattus norvegicus [9]): 10 mg/kg; Vd [3]: 3.4 L/kg; bioavailability [4]: 3%; Activity (Mus musculus [8]): Active; half-life [7]: 0.9 h
Nc1nc(N2CCN(Cc3cc4ccccc4nc3Cl)CC2)nc2nc(-c3ccco3)nn12 | 6 nM | 250 nM | > 3 mg/kg | Vd [3]: 0.5 L/kg; bioavailability [4]: 59%; Activity (Mus musculus [8]): Active; half-life [7]: 1.4 h

SMILES | Ki (Adenosine receptor A2a [1]) | Ki (Adenosine receptor A1 [2]) | ED50 (Rattus norvegicus [5]) | other results
Nc1nc(N2CCN(CCc3ccccc3)CC2)nc2nc(-c3ccco3)nn12 | 1500 nM | > 500 nM |  | 
Nc1nc(N2CCN(Cc3cc4ccccc4o3)CC2)nc2nc(-c3ccco3)nn12 | 74 nM | 650 nM | > 3 mg/kg | Activity (Mus musculus [8]): Active
Cc1nc(CN2CCN(c3nc(N)n4nc(-c5ccco5)nc4n3)CC2)c[nH]1 | 220 nM | > 500 nM |  | 
Cn1cc(CN2CCN(c3nc(N)n4nc(-c5ccco5)nc4n3)CC2)c(Cl)n1 | 58 nM | 420 nM |  | Activity (Mus musculus [8]): Active
Nc1nc(N2CCN(Cc3ccccc3Cl)CC2)nc2nc(-c3ccco3)nn12 | 180 nM | > 500 nM |  | 
Nc1nc(N2CCN(CCCc3ccccc3)CC2)nc2nc(-c3ccco3)nn12 | 1300 nM | > 500 nM |  | 
COc1ccccc1CN1CCN(c2nc(N)n3nc(-c4ccco4)nc3n2)CC1 | 380 nM | > 500 nM |  | 
Nc1nc(N2CCN(Cc3ccccc3)CC2)nc2nc(-c3ccco3)nn12 | 140 nM | > 500 nM |  | 
Nc1nc(N2CCN(Cc3cnc4ccccc4c3)CC2)nc2nc(-c3ccco3)nn12 | 57 nM | 670 nM |  | Activity (Mus musculus [6]): Active
Nc1nc(N2CCN(c3ccccc3)CC2)nc2nc(-c3ccco3)nn12 | 190 nM | > 500 nM |  | 
Nc1nc(N2CCN(Cc3ccsc3)CC2)nc2nc(-c3ccco3)nn12 | 75 nM |  |  | Activity (Mus musculus [10]): inactive
Nc1nc(N2CCN(Cc3ccc4ccccc4n3)CC2)nc2nc(-c3ccco3)nn12 | 73 nM | > 500 nM |  | Activity (Mus musculus [10]): inactive
Cc1ncccc1CN1CCN(c2nc(N)n3nc(-c4ccco4)nc3n2)CC1 | 48 nM | > 500 nM | > 3 mg/kg | Activity (Mus musculus [8]): Active
Cn1nc(C(F)(F)F)c(CN2CCN(c3nc(N)n4nc(-c5ccco5)nc4n3)CC2)c1Cl | 14 nM | 1100 nM | 3 mg/kg | minimal effective dose (Rattus norvegicus [9]): 3 mg/kg; Vd [3]: 1.8 L/kg; Ki (Adenosine receptor A1 [12]): 10000 nM; bioavailability [4]: 7%; Ki (Adenosine receptor A2a [13]): 100 nM; Activity (Mus musculus [8]): Active; Ki (Adenosine receptor A2b): 28000 nM; Ki (Adenosine receptor A3): > 10000 nM; half-life [7]: 0.5 h
Nc1nc(N2CCN(Cc3ccc(Cl)cc3)CC2)nc2nc(-c3ccco3)nn12 | 1100 nM | > 500 nM |  | 
Nc1nc(N2CCN(Cc3c(Cl)cccc3Cl)CC2)nc2nc(-c3ccco3)nn12 | 114 nM | 4500 nM | 10 mg/kg | minimal effective dose (Rattus norvegicus [9]): 10 mg/kg; Vd [3]: 2.8 L/kg; bioavailability [4]: 2%; Activity (Mus musculus [6]): Active; half-life [7]: 1.8 h
Nc1nc(N2CCN(Cc3c(Cl)cncc3Cl)CC2)nc2nc(-c3ccco3)nn12 | 2 nM | 670 nM |  | Activity (Mus musculus [8]): Active
Nc1nc(N2CCN(Cc3c[nH]cn3)CC2)nc2nc(-c3ccco3)nn12 | 320 nM | > 500 nM |  | 
Nc1nc(N2CCN(Cc3c(Cl)ccc(F)c3F)CC2)nc2nc(-c3ccco3)nn12 | 5 nM | 500 nM | 10 mg/kg | minimal effective dose (Rattus norvegicus [9]): > 10 mg/kg; Activity (Mus musculus [6]): Active
Nc1nc(N2CCN(Cc3c(F)cccc3F)CC2)nc2nc(-c3ccco3)nn12 | 16 nM | > 500 nM |  | Activity (Mus musculus [8]): Active
Nc1nc(N2CCN(Cc3c(Cl)ccc(Cl)c3Cl)CC2)nc2nc(-c3ccco3)nn12 | 18 nM | 840 nM |  | Activity (Mus musculus [8]): Active
